Tests used:
[1] = AUC (0 to 6 hrs) in mouse lung at 1 mg/kg, it; assay type: ADME, organism-based; design: time < 6 hr, dose 1 mg/kg, route endotracheal; conditions: inhaled or intranasal
[2] = AUC (0 to 6 hrs) in mouse lung at 1 mg/kg, iv; assay type: ADME, organism-based; design: time < 6 hr, dose 1 mg/kg, route intravenous
[3] = AUC (0 to 6 hrs) in mouse plasma at 1 mg/kg, it; assay type: ADME, organism-based; design: time < 6 hr, dose 1 mg/kg, route endotracheal; conditions: inhaled or intranasal
[4] = AUC (0 to 6 hrs) in mouse plasma at 1 mg/kg, iv; assay type: ADME, organism-based; design: time < 6 hr, dose 1 mg/kg, route intravenous
[5] = Plasma concentration in Balb/C mouse at 1 mg/kg, iv after 0.5 hrs; assay type: ADME, organism-based; design: dose 1 mg/kg, route intravenous
[6] = Plasma concentration in Balb/C mouse at 1 mg/kg, it after 0.5 hrs; assay type: ADME, organism-based; design: dose 1 mg/kg, route endotracheal; conditions: inhaled or intranasal
[7] = Plasma concentration in Balb/C mouse at 1 mg/kg, it after 3 hrs; assay type: ADME, organism-based; design: dose 1 mg/kg, route endotracheal; conditions: inhaled or intranasal
[8] = Plasma concentration in Balb/C mouse at 1 mg/kg, iv after 3 hrs; assay type: ADME, organism-based; design: dose 1 mg/kg, route intravenous
[9] = Drug concentration in Balb/C mouse lung at 1 mg/kg, it after 0.5 hrs; assay type: ADME, organism-based; design: dose 1 mg/kg, route endotracheal; conditions: inhaled or intranasal, read-out: Drug uptake
[10] = Drug concentration in Balb/C mouse lung at 1 mg/kg, it after 3 hrs; assay type: ADME, organism-based; design: dose 1 mg/kg, route endotracheal; conditions: inhaled or intranasal, read-out: Drug uptake
[11] = Drug concentration in Balb/C mouse lung at 1 mg/kg, iv after 0.5 hrs; assay type: ADME, organism-based; design: dose 1 mg/kg, route intravenous; conditions: read-out: Drug uptake
[12] = Drug concentration in Balb/C mouse lung at 1 mg/kg, iv after 3 hrs; assay type: ADME, organism-based; design: dose 1 mg/kg, route intravenous; conditions: read-out: Drug uptake
[13] = Apparent permeability from apical to basolateral side across human Caco2 cells; assay type: ADME, cell-based; conditions: Caco-2

Row | AUC(0-t) at 6 h [1] | AUC(0-t) at 6 h [2] | AUC(0-t) at 6 h [3] | AUC(0-t) at 6 h [4] | concentration at 0.5 h [5] | concentration at 0.5 h [6] | concentration at 3 h [7] | concentration at 3 h [8] | concentration at 0.5 h [9] | concentration at 3 h [10] | concentration at 0.5 h [11] | concentration at 3 h [12] | Papp A→B [13] | SMILES
1 | 16 µM·h | 3.01 µM·h | 0.302 µM·h | 0.372 µM·h | 400 nM | 500 nM | 20 nM | 10 nM | 32500 nM | 1900 nM | 2000 nM | 200 nM |  | c1cc2c(N3CCNCC3)nc(-c3ccc4[nH]ncc4c3)nc2cn1
2 | 9.31 µM·h | 5.92 µM·h | 0.665 µM·h | 0.642 µM·h |  |  |  |  |  |  |  |  | 5.65 ×10⁻⁶ cm/s | c1ccc2c(N3CCNCC3)nc(-c3ccc4[nH]ncc4c3)nc2c1

From ChEMBL document CHEMBL3352074, “Novel ROCK inhibitors for the treatment of pulmonary arterial hypertension” (Bioorg Med Chem Lett, 2014)
